19 compounds from ChEMBL document CHEMBL5532637, “Antimicrobial activity of natural and semi-synthetic carbazole alkaloids” (Eur J Med Chem, 2023) can be followed below.

In brackets after ≈: the same amount, converted by molar mass.

Assay [1] concerns Staphylococcus aureus. Description: Antibacterial activity against Staphylococcus aureus TISTR 1466 assessed as inhibition of bacterial growth by two-fold serial dilution method. It counts as functional.
In assay [2] the test system is Staphylococcus aureus. Description: Antibacterial activity against methicillin-resistant Staphylococcus aureus SK1 assessed as inhibition of bacterial growth by two-fold serial dilution method. It counts as functional.
Assay [3] deals with Escherichia coli. Description: Antibacterial activity against Escherichia coli TISTR 780 assessed as inhibition of bacterial growth by two-fold serial dilution method. It is filed as functional.
Another assay deals with Salmonella typhimurium. Description: Antibacterial activity against Salmonella typhimurium TISTR 292 assessed as inhibition of bacterial growth by two-fold serial dilution method. It counts as functional, Salmonella enterica subsp. enterica serovar Typhimurium. The note with it: Salmonella enterica.
Assay [4] has as its system Staphylococcus epidermidis. Description: Antibacterial activity against Staphylococcus epidermidis assessed as zone of inhibition at 25 ug/ml. It is filed as functional. The note with it: read-out: IZ.
In the next assay the test system is Proteus vulgaris. Description: Antibacterial activity against Proteus vulgaris assessed as zone of inhibition at 25 ug/ml. It counts as functional. The note with it: read-out: IZ.
The subject of assay [5] is Escherichia coli. Description: Antibacterial activity against Escherichia coli assessed as zone of inhibition at 25 ug/ml. It is filed as functional. The note with it: read-out: IZ.
The test system of assay [6] is Escherichia coli. Description: Antibacterial activity against Escherichia coli assessed as inhibition of bacterial growth by agar well dilution assay. It is filed as functional.
The subject of assay [7] is Staphylococcus aureus. Description: Antibacterial activity against Staphylococcus aureus assessed as inhibition of bacterial growth by agar well dilution assay. It is filed as functional.
Another assay concerns Pasteurella multocida. Description: Antibacterial activity against Pasteurella multocida assessed as inhibition of bacterial growth by agar well dilution assay. It is filed as functional.
Assay [8] concerns Bacillus subtilis. Description: Antibacterial activity against Bacillus subtilis assessed as inhibition of bacterial growth by agar well dilution assay. It counts as functional.
The subject of assay [9] is Pseudomonas aeruginosa. Description: Antibacterial activity against Pseudomonas aeruginosa assessed as zone of inhibition incubated for 24 hrs by disk diffusion method. It counts as functional.
Assay [10] has as its system Staphylococcus aureus. Description: Antibacterial activity against Staphylococcus aureus assessed as inhibition of bacterial growth by broth microdilution method. It is filed as functional. Background: Dilution methods test growth across graded concentrations, often in twofold steps.
For assay [11], the system named is Klebsiella pneumoniae. Description: Antibacterial activity against Klebsiella pneumoniae assessed as inhibition of bacterial growth by broth microdilution method. It counts as functional.
The test system of assay [12] is Escherichia coli. Description: Antibacterial activity against Escherichia coli assessed as inhibition of bacterial growth by broth microdilution method. It is filed as functional.
For assay [13], the system named is Pseudomonas aeruginosa. Description: Antibacterial activity against Pseudomonas aeruginosa assessed as inhibition of bacterial growth by broth microdilution method. It is filed as functional.
Assay [14] concerns Staphylococcus aureus. Description: Antimicrobial activity against Staphylococcus aureus ATCC 29213 assessed as inhibition of microbial growth incubated for 24 hrs by two-fold serial dilution assay. It counts as functional.
Assay [15] relates to Bacillus subtilis. Description: Antimicrobial activity against Bacillus subtilis ATCC 6633 assessed as inhibition of microbial growth incubated for 24 hrs by two-fold serial dilution assay. It is filed as functional.
Another assay concerns Priestia megaterium. Description: Antimicrobial activity against Bacillus megaterium ATCC 9885 assessed as inhibition of microbial growth incubated for 24 hrs by two-fold serial dilution assay. It counts as functional.
A further assay has as its system Micrococcus luteus. Description: Antimicrobial activity against Sarcina lutea assessed as inhibition of microbial growth incubated for 24 hrs by two-fold serial dilution assay. It counts as functional.
Assay [16] deals with Klebsiella pneumoniae. Description: Antimicrobial activity against Klebsiella pneumoniae ATCC 13883 assessed as inhibition of microbial growth incubated for 24 hrs by two-fold serial dilution assay. It is filed as functional.
In assay [17] the test system is Pseudomonas aeruginosa. Description: Antimicrobial activity against Pseudomonas aeruginosa ATCC 27953 assessed as inhibition of microbial growth incubated for 24 hrs by two-fold serial dilution assay. It counts as functional.
Assay [18] has as its system Escherichia coli. Description: Antimicrobial activity against Escherichia coli ATCC 25922 assessed as inhibition of microbial growth incubated for 24 hrs by two-fold serial dilution assay. It counts as functional.
Another assay concerns Candida albicans. Description: Antimicrobial activity against Candida albicans NRRL Y-477 assessed as inhibition of microbial growth incubated for 48 hrs by two-fold serial dilution assay. It counts as functional.
In assay [19] the test system is Staphylococcus aureus. Description: Antibacterial activity against Staphylococcus aureus assessed as zone of inhibition by agar-disc diffusion method. It counts as functional. (In general: In agar diffusion tests the substance spreads into inoculated agar from a disc or well.)
The test system of assay [20] is Bacillus subtilis. Description: Antibacterial activity against Bacillus subtilis assessed as zone of inhibition by agar-disc diffusion method. It counts as functional.
In assay [21] the test system is Staphylococcus aureus. Description: Antimicrobial activity against methicillin-resistant Staphylococcus aureus assessed as inhibition of microbial growth incubated for 18 hrs by agar diffusion method. It counts as functional.
A further assay has as its system Pythium. Description: Antifungal activity against Pythium assessed as zone of inhibition incubated upto 9 days by disc diffusion assay. It is filed as functional. The note with it: time <= 9 day.
In a further assay the test system is Vibrio cholerae. Description: Antibacterial activity against Vibrio cholerae assessed as inhibition of bacterial growth incubated for 24 hrs by broth microdilution method. It is filed as functional.
A further assay concerns Shigella flexneri. Description: Antibacterial activity against Shigella flexneri assessed as inhibition of bacterial growth incubated for 24 hrs by broth microdilution method. It counts as functional.
Assay [22] deals with Staphylococcus aureus. Description: Antibacterial activity against Staphylococcus aureus assessed as inhibition of bacterial growth incubated for 24 hrs by broth microdilution method. It is filed as functional.
In assay [23] the test system is Staphylococcus aureus. Description: Antibacterial activity against Staphylococcus aureus assessed as inhibition of bacterial growth. It is filed as functional, organism-based.
For assay [24], the system named is Staphylococcus aureus. Description: Antibacterial activity against Staphylococcus aureus assessed as inhibition of bacterial growth by broth dilution method. It is filed as functional.

A word on the MIC: it is the smallest concentration in the dilution series that meets the test's criterion for growth inhibition. For the compound `COC(=O)c1cc(O)c2[nH]c3ccc(O)c(CC=C(C)C)c3c2c1`, the minimal inhibitory concentration (MIC) with Staphylococcus aureus [1], in the assay with Staphylococcus aureus [2], in the assay with Escherichia coli [3] and with Salmonella typhimurium was 64 µg/mL (≈ 197 µM) throughout.
On to `CC1(C)C=Cc2c(ccc3[nH]c4ccc(C=O)cc4c23)O1`, for which the minimum inhibitory concentration (MIC) with Staphylococcus aureus [1], with Staphylococcus aureus [2], in the assay with Escherichia coli [3] and with Salmonella typhimurium was 64 µg/mL (≈ 231 µM) throughout.
In the case of `Cc1cccc2c3c([nH]c12)C(=O)/C(=C/c1ccc(Br)cc1)CC3`, the zone of inhibition at 25 µg/mL (in assay [4]; in the assay on Proteus vulgaris; with Escherichia coli [5]) was 15 mm throughout.
With `C/C(=N/C(=S)C(=S)n1cc(CC(=O)O)c2ccccc21)C1CCCc2c1[nH]c1c([N+](=O)[O-])cc([N+](=O)[O-])cc21` (stereo not given), the MIC with Escherichia coli [6], with Staphylococcus aureus [7], with Pasteurella multocida and in the assay with Bacillus subtilis [8] was 0.056 µg/mL (≈ 0.0994 µM) in each case.
As for `C=CC(=C)c1c(C(=O)OC)cc(O)c2[nH]c3ccccc3c12`, the MIC in the assay with Staphylococcus aureus [1] and with Staphylococcus aureus [2] was 4 µg/mL (≈ 13.6 µM) each time.
With `CCOc1nc2c(c(-c3ccc(F)cc3)c1C(N)=O)CCc1c-2[nH]c2ccccc12`, the “inhibition zone (IZ)” value with Pseudomonas aeruginosa [9] came to 2.1 cm.
What is called MIC90 is an inhibitory concentration at the 90% level, which refers to growth in some studies and to a panel of isolates in others. On to `Cc1cc2c([nH]c3ccc(O)cc32)c2c1OC(C)(C)C=C2`, for which the MIC90 in the assay with Staphylococcus aureus [10] is 3.12 µg/mL (≈ 11.2 µM); in the assay with Klebsiella pneumoniae [11] it was 3.12 µg/mL (≈ 11.2 µM); in the assay on Escherichia coli [12] it was over 100 µg/mL; in the assay on Pseudomonas aeruginosa [13], over 100 µg/mL.
Take `C/C(=N\C(Cc1c[nH]cn1)C(=O)Oc1cc(C(=O)O)cc(O)c1O)C1CCCc2c1[nH]c1c([N+](=O)[O-])cc([N+](=O)[O-])cc21` (stereo not given): the MIC with Escherichia coli [6], in the assay with Staphylococcus aureus [7], in the assay on Pasteurella multocida and in the assay with Bacillus subtilis [8] was 0.056 µg/mL (≈ 0.0945 µM) in each case.
Turning to `CSC(=S)NNC(=O)c1ccc(-n2c3c(c4ccccc42)CCCC3)cc1`, the MIC with Staphylococcus aureus [14], with Bacillus subtilis [15], with Priestia megaterium, with Micrococcus luteus, with Klebsiella pneumoniae [16] and in the assay with Pseudomonas aeruginosa [17] was 25 µg/mL throughout. For the same compound, the MIC with Escherichia coli [18] and in the assay with Candida albicans was 25 µg/mL each time.
As for `O=C(O)c1cn(C2CC2)c2cc(N3CCNCC3)c(F)cc2c1=O` [CIPROFLOXACIN], the “inhibition zone (IZ)” value in the assay with Staphylococcus aureus [19] and in the assay with Bacillus subtilis [20] was 15 mm throughout.
As to `C=C(C)C1Cc2c(cc(O)c3[nH]c4ccccc4c23)C(=O)O1` (stereo not given) [CLAUSAMINE A], the MIC with Staphylococcus aureus [2] stood at 8 µg/mL (≈ 27.3 µM); in the assay with Staphylococcus aureus [21], 64 µg/mL.
For `C=C(C)C1Cc2c(cc(OC)c3[nH]c4ccccc4c23)C(=O)O1` (stereo not given) [CLAUSAMINE B], the minimal inhibitory concentration (MIC) in the assay on Staphylococcus aureus [2] turned out to be 0.25 µg/mL (≈ 0.813 µM).
Regarding `COc1ccc2c(c1)[nH]c1cc(OC)c(C(=O)O)cc12` [CLAUSINE K], the “inhibition zone (IZ)” value with Pythium is on record as 16.2 mm.
For the compound `COC(=O)c1cc2c(cc1OC)[nH]c1ccccc12` [CLAUSINE L], the “inhibition zone (IZ)” value in the assay with Pythium worked out at 10.2 mm.
In the case of `COc1cc(C=O)c(CC=C(C)C)c2c1[nH]c1ccccc12` [EKEBERGININE], the MIC with Vibrio cholerae, in the assay on Shigella flexneri and in the assay with Staphylococcus aureus [22] was 32 µg/mL (≈ 109 µM) throughout.
For `CC(C)=CCc1c(O)c(C=O)cc2c1[nH]c1ccccc12` [HEPTAPHYLLINE], the “inhibition zone (IZ)” value amounted to 14 mm in the assay with Staphylococcus aureus [19] and 12 mm with Bacillus subtilis [20].
With `NC[C@H]1O[C@H](O[C@H]2[C@H](O)[C@@H](O[C@H]3O[C@H](CO)[C@@H](O)[C@H](N)[C@H]3O)[C@H](N)C[C@@H]2N)[C@H](O)[C@@H](O)[C@@H]1O` [KANAMYCIN], the MIC90 with Staphylococcus aureus [10] and in the assay with Klebsiella pneumoniae [11] was 12.5 µg/mL (≈ 25.8 µM) each time.
Usually IC50 stands for the concentration needed to halve the response being measured. `COc1ccc2[nH]c3c4c(c(C)cc3c2c1)OC(C)(C)C=C4` [KOENIMBINE]: in the assay on Staphylococcus aureus [23], the IC50 was found to be 17 µM.
Consider `CC1=CC(=O)c2[nH]c3ccccc3c2C1=O` [MURRAYAQUINONE A], for which the MIC with Staphylococcus aureus [24] was 50 µg/mL (≈ 237 µM).
